Patent publication US12685735B2 (Foghorn Therapeutics Inc., priority 2020, dated 2026)
Like-named read-outs stand apart in the source and are kept apart here.

Columns and labels:
BRM = BRM (Homo sapiens, UniProt P51531); assay: ATPase catalytic activity assay of BRM (ADP-Glo); type: biochemical; conditions: for IC50: read-out: BRM IC50 (μM)*
Method: (§1) The ATPase catalytic activity of BRM or BRG-1 was measured by the in vitro biochemical assay using ADP-Glo™ (Promega, V9102). The ADP-Glo™ kinase assay is performed in two steps once the reaction is complete. The first step is to deplete any unconsumed ATP in the reaction. The second step is to convert the reaction product ADP to ATP, which will be utilized by the luciferase to generate luminesce and be detected by a luminescence reader, such as Envision.
(§2) Then following addition of 5 μL of ADP-Glo™ Reagent provided in the kit, the reaction incubates at room temperature for 40 minutes. Then 10 μL of Kinase Detection Reagent provided in the kit is added to convert ADP to ATP, and the reaction incubates at room temperature for 60 minutes. Finally, luminescence measurement is collected with a plate-reading luminometer, such as Envision.
as §1, with “The” for “The ATPase catalytic activity of BRM or BRG-1 was measured by the in vitro biochemical assay using ADP-Glo™ (Promega, V9102). The”

BRG-1 = BRG-1 (Homo sapiens, UniProt P51532); assay: ATPase catalytic activity assay of BRG-1 (ADP-Glo); type: biochemical; conditions: ATPase catalytic activity, ADP-Glo; for IC50: read-out: BRG1 IC50 (μM)*; for Emax: read-out: BRG1 Max % Inhibition
Method: as §1, §2
as §1, with “The” for “The ATPase catalytic activity of BRM or BRG-1 was measured by the in vitro biochemical assay using ADP-Glo™ (Promega, V9102). The”

Chain of BRM (P51531 whole entry): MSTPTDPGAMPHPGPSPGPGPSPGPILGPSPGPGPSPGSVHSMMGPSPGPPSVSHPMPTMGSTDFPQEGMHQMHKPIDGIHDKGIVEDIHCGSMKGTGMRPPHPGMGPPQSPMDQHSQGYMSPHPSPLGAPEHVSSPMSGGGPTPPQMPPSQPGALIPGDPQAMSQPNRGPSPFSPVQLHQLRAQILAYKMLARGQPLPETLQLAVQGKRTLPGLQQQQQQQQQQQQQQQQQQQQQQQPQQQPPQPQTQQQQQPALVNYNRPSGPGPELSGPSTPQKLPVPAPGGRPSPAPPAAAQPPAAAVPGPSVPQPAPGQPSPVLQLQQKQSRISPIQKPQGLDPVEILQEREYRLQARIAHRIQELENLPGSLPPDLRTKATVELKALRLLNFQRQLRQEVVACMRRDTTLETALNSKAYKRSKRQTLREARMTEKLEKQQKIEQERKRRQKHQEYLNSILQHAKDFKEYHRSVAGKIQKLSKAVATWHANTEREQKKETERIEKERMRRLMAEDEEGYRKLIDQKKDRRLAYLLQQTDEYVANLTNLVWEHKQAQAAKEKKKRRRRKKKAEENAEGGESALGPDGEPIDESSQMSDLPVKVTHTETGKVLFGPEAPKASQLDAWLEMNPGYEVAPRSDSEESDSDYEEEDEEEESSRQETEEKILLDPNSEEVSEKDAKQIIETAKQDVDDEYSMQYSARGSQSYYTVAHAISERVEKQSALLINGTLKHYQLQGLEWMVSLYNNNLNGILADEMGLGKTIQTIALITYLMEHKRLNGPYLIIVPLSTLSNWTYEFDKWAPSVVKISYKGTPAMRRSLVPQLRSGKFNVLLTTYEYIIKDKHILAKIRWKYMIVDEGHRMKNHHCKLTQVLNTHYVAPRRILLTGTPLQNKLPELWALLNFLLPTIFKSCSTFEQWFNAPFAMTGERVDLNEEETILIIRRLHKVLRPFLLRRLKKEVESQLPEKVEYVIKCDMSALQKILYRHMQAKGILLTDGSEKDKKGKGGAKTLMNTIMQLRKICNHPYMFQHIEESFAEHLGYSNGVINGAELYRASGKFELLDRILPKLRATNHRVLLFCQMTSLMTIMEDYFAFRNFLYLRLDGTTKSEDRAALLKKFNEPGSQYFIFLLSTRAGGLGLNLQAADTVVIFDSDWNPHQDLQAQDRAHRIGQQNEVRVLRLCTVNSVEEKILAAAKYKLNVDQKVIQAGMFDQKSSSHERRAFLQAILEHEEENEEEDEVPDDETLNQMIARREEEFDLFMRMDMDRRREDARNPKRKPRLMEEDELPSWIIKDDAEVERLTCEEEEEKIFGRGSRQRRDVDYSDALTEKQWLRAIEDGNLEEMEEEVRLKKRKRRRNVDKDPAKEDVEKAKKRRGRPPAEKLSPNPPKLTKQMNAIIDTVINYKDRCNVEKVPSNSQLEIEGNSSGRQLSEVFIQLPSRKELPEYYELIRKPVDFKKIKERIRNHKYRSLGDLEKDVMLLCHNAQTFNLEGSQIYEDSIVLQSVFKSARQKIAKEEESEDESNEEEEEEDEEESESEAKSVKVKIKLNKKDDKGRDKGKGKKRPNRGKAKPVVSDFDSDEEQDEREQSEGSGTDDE
Chain of BRG-1 (P51532 whole entry): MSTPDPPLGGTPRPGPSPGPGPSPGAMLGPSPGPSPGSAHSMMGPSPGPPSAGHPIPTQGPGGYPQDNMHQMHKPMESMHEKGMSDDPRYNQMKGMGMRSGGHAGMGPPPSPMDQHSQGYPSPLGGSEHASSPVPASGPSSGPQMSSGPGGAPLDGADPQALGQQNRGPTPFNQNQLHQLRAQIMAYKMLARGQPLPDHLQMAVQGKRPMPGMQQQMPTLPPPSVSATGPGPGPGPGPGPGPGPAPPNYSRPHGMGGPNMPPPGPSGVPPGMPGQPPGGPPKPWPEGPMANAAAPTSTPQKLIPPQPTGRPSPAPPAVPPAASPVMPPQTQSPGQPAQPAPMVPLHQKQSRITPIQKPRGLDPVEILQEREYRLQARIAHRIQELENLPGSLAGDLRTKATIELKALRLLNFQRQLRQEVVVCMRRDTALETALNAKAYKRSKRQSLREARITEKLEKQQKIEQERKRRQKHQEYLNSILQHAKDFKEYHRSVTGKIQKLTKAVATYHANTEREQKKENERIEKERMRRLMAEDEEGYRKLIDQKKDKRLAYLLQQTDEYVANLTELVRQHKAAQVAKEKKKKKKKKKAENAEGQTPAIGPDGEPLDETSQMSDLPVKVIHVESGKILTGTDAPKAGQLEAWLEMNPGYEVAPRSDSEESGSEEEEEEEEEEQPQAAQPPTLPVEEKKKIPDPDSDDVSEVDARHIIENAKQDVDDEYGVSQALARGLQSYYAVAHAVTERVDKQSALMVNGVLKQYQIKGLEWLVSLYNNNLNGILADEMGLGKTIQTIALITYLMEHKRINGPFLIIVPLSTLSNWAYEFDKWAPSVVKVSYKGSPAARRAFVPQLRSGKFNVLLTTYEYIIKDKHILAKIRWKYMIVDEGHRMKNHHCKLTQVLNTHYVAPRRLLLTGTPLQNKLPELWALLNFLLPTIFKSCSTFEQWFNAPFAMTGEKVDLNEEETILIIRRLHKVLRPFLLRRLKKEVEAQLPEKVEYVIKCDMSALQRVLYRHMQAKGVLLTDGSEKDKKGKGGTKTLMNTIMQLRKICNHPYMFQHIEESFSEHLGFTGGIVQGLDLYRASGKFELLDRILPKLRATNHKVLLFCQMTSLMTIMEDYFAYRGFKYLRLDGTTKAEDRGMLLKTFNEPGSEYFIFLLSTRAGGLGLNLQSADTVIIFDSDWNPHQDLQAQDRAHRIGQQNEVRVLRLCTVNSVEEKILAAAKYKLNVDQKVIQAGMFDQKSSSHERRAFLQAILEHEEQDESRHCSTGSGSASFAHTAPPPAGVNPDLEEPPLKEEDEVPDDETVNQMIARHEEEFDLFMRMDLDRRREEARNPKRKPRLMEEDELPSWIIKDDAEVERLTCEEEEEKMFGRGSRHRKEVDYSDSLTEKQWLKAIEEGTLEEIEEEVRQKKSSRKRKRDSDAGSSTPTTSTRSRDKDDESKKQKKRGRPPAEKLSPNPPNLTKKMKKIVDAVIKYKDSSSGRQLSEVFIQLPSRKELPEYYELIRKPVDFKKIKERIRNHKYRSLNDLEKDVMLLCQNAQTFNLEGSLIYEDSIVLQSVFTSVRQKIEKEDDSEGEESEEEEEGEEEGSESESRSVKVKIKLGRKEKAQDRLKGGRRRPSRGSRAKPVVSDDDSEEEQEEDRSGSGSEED

| Structure (SMILES) | BRM Max % Inhibition (BRM) [%] | IC50 (BRM) [µM] | IC50 (BRG-1) [µM] | Emax (BRG-1) [%] | BRM Max % Inhibition (BRM; 30 nM BRM, 400 μM ATP) [%] | IC50 (BRM; 30 nM BRM, 400 μM ATP) [µM] | IC50 (BRG-1; 30 nM BRG-1, 400 μM ATP) [µM] | Emax (BRG-1; 30 nM BRG-1, 400 μM ATP) [%] | BRG1 Max % Inhibition (BRG-1) [%] |
| --- | --- | --- | --- | --- | --- | --- | --- | --- | --- |
| C[C@@H]1CN(c2cccc(-c3csc(NC(=O)CNC(=O)c4cccc([C@H]5COC[C@H]5O)c4)n3)c2)C[C@H](C)O1 (relative stereo) [Compound 424, N-(2-((4-(3-((cis)-2,6-dimethylmorpholino)phenyl)thiazol-2-yl)amino)-2-oxoethyl)-3-((cis)-4-hydroxytetrahydrofuran-3-yl)benzamide] | – | – | – | – | >80 | 0.1 to 1 | > 5 | > 80 | – |
| CCC(C)(O)c1cccc(C(=O)NCC(=O)Nc2nc(-c3cccc(-c4ccncc4)c3)cs2)c1 (single isomer, unassigned) [Compound 80] | >90 | 1 to 5 | 0.1 to 1 | > 80 | – | – | – | – | – |
| CCC(C)(O)c1cccc(C(=O)NCC(=O)Nc2nc(-c3cccc(-c4ccncc4)c3)cs2)c1 (single isomer, unassigned) [Compound 81] | >90 | 0.1 to 1 | 0.1 to 1 | – | – | – | – | – | >70 |
| CC1(C#N)CCc2ccc(C(=O)NCC(=O)Nc3nc(-c4cccc(-c5ccncc5)c4)cs3)cc21 (single isomer, unassigned) [Compound 103] | >95 | < 0.1 | < 0.1 | – | – | – | – | – | >95 |
| CC1(CO)CCc2ccc(C(=O)NCC(=O)Nc3nc(-c4cccc(-c5ccncc5)c4)cs3)cc21 (single isomer, unassigned) [Compound 105] | >95 | < 0.1 | < 0.1 | > 90 | – | – | – | – | – |
| C[C@@H]1CN(c2cccc(-c3csc(NC(=O)CNC(=O)c4ccc5c(c4)[C@](C)(CO)CO5)n3)n2)C[C@H](C)O1 (single isomer, unassigned) [Compound 132] | >80 | 0.1 to 1 | > 5 | > 50 | – | – | – | – | – |
| C[C@@H]1CN(c2cccc(-c3csc(NC(=O)CNC(=O)c4ccc5c(c4)[C@@](C)(CO)CO5)n3)n2)C[C@H](C)O1 (single isomer, unassigned) [Compound 133] | >95 | 0.1 to 1 | 1 to 5 | > 70 | – | – | – | – | – |
| C[C@@H]1CN(c2cccc(-c3csc(NC(=O)CNC(=O)c4ccc5c(c4)[C@@](F)(C#N)COC5)n3)n2)C[C@H](C)O1 (single isomer, unassigned) [Compound 299] | >95 | < 0.1 | 0.1 to 1 | > 95 | – | – | – | – | – |
| COc1cccc(-c2csc(NC(=O)CNC(=O)c3cc(F)c4c(c3)C(C)(O)COC4)n2)c1 (stereo in doubt) [Compound 280, (R)-8-fluoro-4-hydroxy-N-(2-((4-(3-methoxyphenyl)thiazol-2-yl)amino)-2-oxoethyl)-4-methylisochromane-6-carboxamide] | >90 | 0.1 to 1 | 1 to 5 | > 90 | – | – | – | – | – |
| CCOC(=O)N1CCCC(c2csc(NC(=O)CNC(=O)c3ccc4c(c3)[C@](C)(F)COC4)n2)C1 (stereo in doubt) [Compound 283, ethyl (S)-3-(2-(2-((S)-4-fluoro-4-methylisochromane-6-carboxamido)acetamido)thiazol-4-yl)piperidine-1-carboxylate] | >95 | < 0.1 | 0.1 to 1 | > 95 | – | – | – | – | – |
| CCOC(=O)N1CCC[C@H](c2csc(NC(=O)CNC(=O)c3ccc4c(c3)C(C)(F)COC4)n2)C1 (stereo in doubt) [Compound 284, ethyl (S)-3-(2-(2-((R)-4-fluoro-4-methylisochromane-6-carboxamido)acetamido)thiazol-4-yl)piperidine-1-carboxylate] | >95 | < 0.1 | 0.1 to 1 | > 95 | – | – | – | – | – |
| C[C@@H]1CN(c2cccc(-c3csc(NC(=O)CNC(=O)c4ccc5c(c4)C(C)(C#N)CNC5)n3)c2)C[C@H](C)O1 (stereo in doubt) [Compound 287, (S)-4-cyano-N-(2-((4-(3-((cis)-2,6-dimethylmorpholino)phenyl)thiazol-2-yl)amino)-2-oxoethyl)-4-methyl-1,2,3,4-tetrahydroisoquinoline-6-carboxamide] | >95 | < 0.1 | < 0.1 | > 95 | – | – | – | – | – |
| COC(=O)N1CCC[C@H](c2csc(NC(=O)CNC(=O)c3ccc4c(c3)C(C)(F)COC4)n2)C1 (stereo in doubt) [Compound 301, methyl (S)-3-(2-(2-((R)-4-fluoro-4-methylisochromane-6-carboxamido)acetamido)thiazol-4-yl)piperidine-1-carboxylate] | >95 | 0.1 to 1 | 1 to 5 | > 95 | – | – | – | – | – |
| COC(=O)N1CCCC(c2csc(NC(=O)CNC(=O)c3ccc4c(c3)[C@](C)(F)COC4)n2)C1 (stereo in doubt) [Compound 302, methyl (S)-3-(2-(2-((S)-4-fluoro-4-methylisochromane-6-carboxamido)acetamido)thiazol-4-yl)piperidine-1-carboxylate] | >95 | < 0.1 | 0.1 to 1 | > 95 | – | – | – | – | – |
| C[C@@H]1CN(c2cccc(-c3csc(NC(=O)CNC(=O)c4ccc5c(c4)C(F)(C(F)F)COC5)n3)c2)C[C@H](C)O1 (stereo in doubt) [Compound 307, (R)-4-(difluoromethyl)-N-(2-((4-(3-((cis)-2,6-dimethylmorpholino)phenyl)thiazol-2-yl)amino)-2-oxoethyl)-4-fluoroisochromane-6-carboxamide] | >95 | < 0.1 | < 0.1 | > 95 | – | – | – | – | – |

Results, then the compound that gave them:

| BRM Max % Inhibition (BRM) [%] | IC50 (BRM) [µM] | IC50 (BRG-1) [µM] | Emax (BRG-1) [%] | BRM Max % Inhibition (BRM; 30 nM BRM, 400 μM ATP) [%] | IC50 (BRM; 30 nM BRM, 400 μM ATP) [µM] | IC50 (BRG-1; 30 nM BRG-1, 400 μM ATP) [µM] | Emax (BRG-1; 30 nM BRG-1, 400 μM ATP) [%] | BRG1 Max % Inhibition (BRG-1) [%] | Structure (SMILES) |
| --- | --- | --- | --- | --- | --- | --- | --- | --- | --- |
| >90 | 0.1 to 1 | 1 to 5 | > 90 | – | – | – | – | – | C[C@@H]1CN(c2cccc(-c3csc(NC(=O)CNC(=O)c4ccc5c(c4)[C@H](C#N)CCO5)n3)n2)C[C@H](C)O1 (racemic) [Compound 405, rac-4-cyano-N-(2-((4-(6-((cis)-2,6-dimethylmorpholino)pyridin-2-yl)thiazol-2-yl)amino)-2-oxoethyl)chromane-6-carboxamide] |
| >50 | 0.1 to 1 | > 5 | – | – | – | – | – | >30 | CC1(C#N)CCc2ccc(C(=O)NCC(=O)Nc3nc(-c4cccc(-c5ccncc5)c4)cs3)cc21 (single isomer, unassigned) [Compound 88] |
| >90 | 0.1 to 1 | 0.1 to 1 | – | – | – | – | – | >70 | CC1(CO)CCc2ccc(C(=O)NCC(=O)Nc3nc(-c4cccc(-c5ccncc5)c4)cs3)cc21 (single isomer, unassigned) [Compound 107] |
| >95 | 0.1 to 1 | 1 to 5 | > 95 | – | – | – | – | – | C[C@@H]1CN(c2cccc(-c3csc(NC(=O)CNC(=O)c4ccc5c(c4)[C@](F)(C#N)COC5)n3)n2)C[C@H](C)O1 (single isomer, unassigned) [Compound 298] |
| >95 | 0.1 to 1 | 0.1 to 1 | > 80 | – | – | – | – | – | CN1CCc2ccc(-c3csc(NC(=O)CNC(=O)c4ccc5c(c4)C(C)(CO)CC5)n3)cc2C1=O (stereo in doubt) [Compound 176, (R)-3-(hydroxymethyl)-3-methyl-N-(2-((4-(2-methyl-1-oxo-1,2,3,4-tetrahydroisoquinolin-7-yl)thiazol-2-yl)amino)-2-oxoethyl)-2,3-dihydro-1H-indene-5-carboxamide] |
| >80 | 0.1 to 1 | > 5 | > 50 | – | – | – | – | – | CC1(CO)CCc2ccc(C(=O)NCC(=O)Nc3nc(-c4ccn5ccnc5c4)cs3)cc21 (stereo in doubt) [Compound 178, (R)-3-(hydroxymethyl)-N-(2-((4-(imidazo[1,2-a]pyridin-7-yl)thiazol-2-yl)amino)-2-oxoethyl)-3-methyl-2,3-dihydro-1H-indene-5-carboxamide] |
| >95 | < 0.1 | < 0.1 | > 95 | – | – | – | – | – | C[C@@H]1CN(c2cccc(-c3csc(NC(=O)CNC(=O)c4ccc5c(c4)C(F)(C(F)F)CCO5)n3)n2)C[C@H](C)O1 (stereo in doubt) [Compound 272, (R)-4-(difluoromethyl)-N-(2-((4-(6-((cis)-2,6-dimethylmorpholino)pyridin-2-yl)thiazol-2-yl)amino)-2-oxoethyl)-4-fluorochromane-6-carboxamide] |
| >95 | < 0.1 | 0.1 to 1 | > 95 | – | – | – | – | – | C[C@@H]1CN(c2cccc(-c3csc(NC(=O)CNC(=O)c4ccc5c(c4)C(F)(C(F)F)CCO5)n3)n2)C[C@H](C)O1 (stereo in doubt) [Compound 273, (S)-4-(difluoromethyl)-N-(2-((4-(6-((cis)-2,6-dimethylmorpholino)pyridin-2-yl)thiazol-2-yl)amino)-2-oxoethyl)-4-fluorochromane-6-carboxamide] |
